Data: patent US20230293406A1, “Compositions Comprising (Bio)-Alkanediols and Cooling Agents” (Symrise AG, priority 2020, published 2023)
In brackets after ≈: the same amount, converted by molar mass. Where two headings read alike, the source gives them in different places. Values belong to the compound of their own block, whether it stands above or below them.

How the values were obtained:
Staphylococcus hominis = experiment: Minimum Inhibitory Concentration (MIC) growth inhibition test and Kull Synergy Index; assay type: cell-based
Method: (§1) The MIC test is a test on growth inhibition. Estimation of the Minimum Inhibitory Concentration (MIC) is executed in 96 well plates. Through the comparison of bacterial growth with positive and negative controls via optical density (OD), different concentrations of given test substances are evaluated. Bacteria are cultivated under adjusted conditions based on information of the German Collection of Microorganisms and Cell Cultures (DSMZ) and stored in 50% Glycerol prior to use. Afterwards, the following method was applied:
(§2) Adding growth medium (according to microorganism) to each well of the microplate. Adding the test-substances in different concentrations, positive controls (water controls only with medium) and negative controls (benchmarks according to organism). Adding the microorganism in a concentration of 10^6 CFU/ml (CFU=colony forming units). Incubation of the microplates at appropriate conditions.
(§3) According to resulting growth, substance concentrations are labelled either as inhibiting or not and the corresponding MIC is defined as the lowest concentration where a complete growth inhibition is visible. Experiments at concentration limits (highest concentration labelled as growth and lowest concentration labelled as inhibiting) are performed at least twice.
(§4) The synergistic activity of 1,2-alkanediols with cooling compounds was determined by measuring the corresponding minimum inhibitory concentrations (MIC values) according to the method described above for antimicrobial activity: Minimum Inhibitory Concentration (MIC)
(§5) In order to calculate the synergy index with MIC values, the Kull equation (I) was used as follows:
(§6) SI=(MICmix×PA)/MICA+(MICmix×PB)/MICB (I)
(§7) wherein • SI is the Synergy Index according to Kull • MICA is the MIC value for Substance A • MICB is the MIC value for Substance B • MICmix is the MIC value for the mixture of substances A and B • PA is the proportion of the substance A in the mixture • PB is the proportion of the substance B in the mixture
(§8) To verify that the tested combinations act synergistically against microorganisms of the natural microbiota of mammalian skin, a corresponding experiment was conducted with representative microbial species. The synergistic activities of mixtures of 1,2-heptanediol and Menthyl lactate as well as for 1,2-nonanediol and Menthyl lactate were determined by measuring the corresponding minimum inhibitory concentrations (MIC values) as indicated in the methods section.

Corynebacterium xerosis = experiment: as above; assay type: cell-based; settings: for MIC: Corynebacterium xerosis, read-out: MIC (ppm) Corynebacterium xerosis (converted)
Method: as §1, §2, §3, §4, §5, §6, §7, §8

[1] = Malodour coverage sensory test, trained panel, filter paper with sweat malodour; settings: for malodour coverage ranking 6 h: after 6 h; for malodour coverage ranking 24 h: after 24 h; for malodour coverage ranking 48 h: after 48 h
Method: Malodour coverage was tested in an established setup with a trained panel (n=5-9). For this sensory test, a defined amount of the material was applied on a filter paper together with a defined amount of sweat malodour. For evaluation, the panelists were asked to rate the individual samples on a scale from 0 to 10 (0: odourless; 10: strongest imaginable). The results of the malodour rating for all materials were ranked and the position of the individual materials compared over time. A synergistic effect regarding reduction of malodour was found for all mixtures of Frescolat ML and 1,2-heptanediol after 24 h and 48 h, respectively.

Staphylococcus aureus = experiment: Minimum Inhibitory Concentration (MIC) growth inhibition test, 96 well plates, OD; assay type: cell-based; settings: Table 1
Method: (§9) The MIC test is a test on growth inhibition. Estimation of the Minimum Inhibitory Concentration (MIC) is executed in 96 well plates. Through the comparison of bacterial growth with positive and negative controls via optical density (OD), different concentrations of given test substances are evaluated. Bacteria are cultivated under adjusted conditions based on information of the German Collection of Microorganisms and Cell Cultures (DSMZ) and stored in 50% Glycerol prior to use. Afterwards, the following method was applied: Adding growth medium (according to microorganism) to each well of the microplate. Adding the test-substances in different concentrations, positive controls (water controls only with medium) and negative controls (benchmarks according to organism). Adding the microorganism in a concentration of 10^6 CFU/ml (CFU=colony forming units). Incubation of the microplates at appropriate conditions. According to resulting growth, substance concentrations are labelled either as inhibiting or not and the corresponding MIC is defined as the lowest concentration where a complete growth inhibition is visible. Experiments at concentration limits (highest concentration labelled as growth and lowest concentration labelled as inhibiting) are performed at least twice.

Escherichia coli = experiment: Minimum Inhibitory Concentration (MIC) growth inhibition test; assay type: cell-based; settings: Table 1
Method: as §9

Propionibacterium acnes = experiment: as above; assay type: cell-based; settings: Cutibacterium acnes; Table 1; >5000: 5000 ppm tested, no growth inhibition
Method: as §9

Candida albicans = experiment: as above; assay type: cell-based; settings: Table 1
Method: as §9

Corynebacterium jeikeium = experiment: as above; assay type: cell-based; settings: Table 1
Method: as §9

[2] = Table 3, single substances and mixtures with menthyl lactate, read-out: MIC (ppm) Staphylococcus hominis
[3] = Table 3, single substances and mixtures with menthyl lactate
[4] = Ranking: 1 = lowest malodour to 6 = strongest malodour, Table 6
[5] = Ranking: 1 = lowest malodour to 6 = strongest malodour, Table 5
[6] = Table 4, single substances and mixtures with further cooling agents
[7] = Ranking: 1 = highest malodour to 6 = lowest malodour, single diols at 0.5%, Table 7
[8] = Ranking: 1 = highest malodour to 6 = lowest malodour, single diols at 0.5%, Table 9
[9] = Ranking: 1 = highest malodour to 6 = lowest malodour, single diols at 0.5%, Table 8

MIC (Staphylococcus hominis; [2]): 250 µg/mL
MIC (Corynebacterium xerosis; [3]): 250 µg/mL
SMILES: CC1CCC(C(C)C)C(OC(=O)C(C)O)C1 (single isomer, unassigned; (-)) [Menthyl lactate, (−)-Menthyl lactate]
malodour coverage ranking 6 h [1, 4]: 3.6
malodour coverage ranking 24 h [1, 5]: 3.6
malodour coverage ranking 24 h [1, 4]: 3.9
malodour coverage ranking 48 h [1, 5]: 3.1

MIC (Staphylococcus hominis; [2]): 10000 µg/mL
MIC (Corynebacterium xerosis; [3]): 5000 µg/mL
MIC (ppm) Corynebacterium xerosis (Corynebacterium xerosis; [6]): 5 000 ppm
SMILES: CCCCCC(O)CO (stereo not drawn) [1,2-C7, 1,2-heptanediol]
malodour coverage ranking 6 h [1, 7]: 2.3
malodour coverage ranking 6 h [1, 8]: 3.5
malodour coverage ranking 24 h [1, 7]: 3.4
malodour coverage ranking 24 h [1, 8]: 3.1
malodour coverage ranking 24 h [1, 5]: 3.3
malodour coverage ranking 48 h [1, 5]: 3.3

SMILES: CCCCCCC(O)CO (stereo not drawn) [1,2-C8, 1,2-Octanediol]
malodour coverage ranking 24 h [1, 9]: 2.8

MIC (Staphylococcus hominis; [2]): 1000 µg/mL
MIC (ppm) Corynebacterium xerosis (Corynebacterium xerosis; [3]): 2 500 ppm
MIC (ppm) Corynebacterium xerosis (Corynebacterium xerosis; [6]): 2 500 ppm
SMILES: CCCCCCCC(O)CO (stereo not drawn) [1,2-C9, 1,2-nonanediol]
malodour coverage ranking 6 h [1, 4]: 4.2
malodour coverage ranking 24 h [1, 4]: 3.9

MIC (Staphylococcus aureus): 125 µg/mL (≈ 664 µM)
MIC (Staphylococcus hominis; Table 1, read-out: Minimum Inhibitory Concentration (MIC) Staphylococcus hominis): 125 µg/mL
MIC (Escherichia coli): 250 µg/mL (≈ 1330 µM)
MIC (Propionibacterium acnes): 250 µg/mL (≈ 1330 µM)
MIC (Candida albicans): 64 µg/mL (≈ 340 µM)
MIC (Corynebacterium jeikeium): 250 µg/mL (≈ 1330 µM)
SMILES: CCCCCCCCCC(O)CO (stereo not drawn) [1,2-C11, 1,2-undecandiol]

MIC (Corynebacterium xerosis; [6]): 12500 µg/mL
SMILES: CCCCC(O)C(C)O (stereo not drawn) [2,3-C7, 2,3-Heptanediol]
malodour coverage ranking 6 h [1, 7]: 3.2
malodour coverage ranking 24 h [1, 7]: 3.5

SMILES: CCCCCC(O)C(C)O (stereo not drawn) [2,3-C8, 2,3-Octanediol]
malodour coverage ranking 6 h [1, 8]: 2.3
malodour coverage ranking 24 h [1, 9]: 3.2
malodour coverage ranking 24 h [1, 8]: 3.4

MIC (Corynebacterium xerosis; [6]): 2500 µg/mL
SMILES: CCCCCCC(O)C(C)O (stereo not drawn) [2,3-C9, 2,3-nonanediol]

MIC (Corynebacterium xerosis; [6]): 500 µg/mL
SMILES: CC1CCC(C(C)C)C(OCC(O)CO)C1 (stereo not drawn) [3-((−)-Menthoxy)propane-1,2-diol]

MIC (Corynebacterium xerosis; [6]): 1000 µg/mL
SMILES: CC1CCC(C(C)C)C(O)C1 (stereo not drawn) [Menthol]
